Key:
[1] = between pH 1 and 14; cited from earlier work
[2] = Amorphous content by Dynamic Vapor Sorption Analysis (DVS), water uptake method; format: physicochemical; details: after the curing step
Method: Dynamic Vapor Sorption Analysis (DVS):
The experiments were performed in a Mettler Toledo TGA/DSC 1 LF instrument equipped with a LF SDTA FRS2 sensor and coupled with a Modular Humidity Generator MHG 32. The samples were weighted into 150 μL platinum crucibles. Data collection and evaluation was done with STARe software. A water uptake method was used to determine the amorphous content. In this method, the relative mass difference at a specific relative humidity (20%) prior to and post humidity-induced crystallization was compared. Assuming no solvate or hydrate formation, the difference in uptake between partially amorphous and recrystallized material is directly proportional to the initial amount of amorphous material in the sample. A purely amorphous sample (reference sample) was used as amorphous standard. The water uptake of a sample is proportional to the amount of amorphous content present in the sample.

[3] = for D50 determined by LDS after curing / D90 determined by LDS after curing: after curing at 130° C., storage at 25° C. for (at least) 1 month
Method: Laser Diffraction Spectrometry (LDS) was used to determine the Particle Size Distribution (PSD) and the determination of the presence of aggregates.
Particle Size Distribution ([…]).
The particle size distribution of sample was measured by using a Helos particle size analyser using a R1 lense with an Aspiros feeder using a dispersing dry process on 50 mg of glycopyrronium salt product.
(§1) Determination of Presence of Aggregates (MALVERN).
The presence of aggregates in a sample was determined by using a Malvern Mastersizer 2000 instrument. For example: 100 mg of glycopyrronium salt were mixed with 5 ml of a previously prepared saturated solution of glycopyrronium salt in n-heptane containing 0.2 wt. % of Span-20. Ultrasonic treatment of the samples was performed for 2 minutes.

[4] = Determination of presence of aggregates / agglomerated material (Malvern); format: physicochemical; details: after the curing step
Excerpt: as §1

[5] = after curing at 70° C., vacuum, 6 hours, FIG. 1: after storage at 25° C. for 1 month

Compound | ionization [1] | amorphous content as determined by DVS [2] | D50 after the curing step (agglomerated material, FIG. 1) [3, 5] | D90 after the curing step (agglomerated material, FIG. 1) [3, 5] | agglomerated material observed [4] | amorphous content as determined by DVS (in words) [2] | D50 determined by LDS after curing [3] | D90 determined by LDS after curing [3]
C[N+]1(C)CC[C@@H](OC(=O)[C@@](O)(c2ccccc2)C2CCCC2)C1 (racemic) [Glycopyrronium bromide, (3RS)-3-[(2SR)-(2-cyclopentyl-2-hydroxy-2-phenylacetyl)oxy]-1,1-dimethylpyrrolidinium bromide] | completely ionized |  |  |  |  |  |  | 
glycopyrronium bromide [Example 1, reference compound] |  | 1.8 wt. % | 60.27 μm | 888.59 μm | significant amount of agglomerated material |  |  | 
glycopyrronium bromide [Example 2] |  |  |  |  | no agglomerated material was observed | No amorphous content was detected | 1.45 μm | 3.39 μm
glycopyrronium bromide [Example 3] |  |  |  |  | no agglomerated material was observed | No amorphous content was detected | 1.46 μm | 3.36 μm
glycopyrronium bromide [Example 4] |  |  |  |  | no agglomerated material was observed | No amorphous content was detected | 1.45 μm | 3.26 μm
glycopyrronium bromide [Example 5] |  |  |  |  | no agglomerated material was observed | No amorphous content was detected | 1.43 μm | 3.28 μm
glycopyrronium bromide [Example 6] |  |  |  |  | no agglomerated material was observed | No amorphous content was detected | 1.48 μm | 3.11 μm
